Data taken from PMC9784969, “SARS-CoV-2 Inhibitors Identified by Phenotypic Analysis of a Collection of Viral RNA-Binding Molecules” (Pharmaceuticals, 2022).
Structures can show the parent of a compound that is named as a salt. Where two headings read alike, the source gives them in different places.

How the values were obtained:
[1] = system: subdomain IIB of the rev recognition element (RRE) of the HIV-1 genomic RNA; conditions: cited from earlier work
Vero E6 cells = conditions: read-out: SARS-CoV-2 CC50, uninfected, MTT
SARS-CoV-2 USA-WA1/2020 [2] = assay: microbe, parasite or virus in culture; assay type: cell-based; conditions: Vero E6 cells, MOI 0.025, two days, read-out: SARS-CoV-2 EC50
3_S2m RNA = assay: ligand-based 1H NMR (1D, CPMG, wLOGSY); assay type: binding, SARS-CoV-2
ATTL RNA = assay: ligand-based 1H NMR (1D, CPMG, wLOGSY); assay type: binding, SARS-CoV-2
SCoV2 RNA elements = assay: ligand-based 1H NMR (1D, CPMG, wLOGSY), six RNA elements compared; assay type: binding, SARS-CoV-2; conditions: CSP, LB, CPMG and wLOGSY perturbations; 300 µM compound
Excerpt: We first used ligand-based ^1H NMR experiments to analyze the interaction of the selected compounds with each of the six RNA elements specified above, including one-dimensional, Carr–Purcell–Meiboom–Gill (CPMG) and waterLOGSY (wLOGSY) experiments. These assays detect changes in the ^1H signals of the ligand upon RNA association (Figure 4A), and have been successfully used to evaluate small-molecule binding to RNA motifs, including elements of the SCoV2 genome.
Each ligand (at a concentration of 300 μM) was mixed with a smaller quantity of RNA in an aqueous solution containing 25 mM potassium phosphate (pH 6.2), 150 mM KCl, 3 mM MgCl2, and 10% D2O. RNA–ligand molar ratios of 1:50 and 1:100 were explored (with 6 and 3 μM RNA, respectively). […] The water signal was suppressed from one-dimensional experiments with a watergate sequence. The CPMG experiments were acquired with 100, 200, 300, and 400 ms relaxation delays before acquisition, and water suppression was achieved by presaturation. wLOGSY experiments employed a selective Gaussian 180° pulse at the water frequency and an NOE mixing time of 1.5 s and suppressed the water signal by excitation sculpting. All spectra were acquired in the absence and presence of RNA.
All ligand signals were individually analyzed. For clomiphene citrate, the signals corresponding to cis and trans forms were identified by comparing the spectrum of clomiphene citrate with those of the individual stereoisomers. In CPMG experiments, the binding of the compounds to the different RNA sequences was quantified as 100 minus the percentage of ligand signal area in the +RNA CPMG spectrum relative to the corresponding signal area in the -RNA CPMG spectrum. In wLOGSY experiments, binding was quantified with the LOGSY factor, or % of ligand signal in the difference spectrum between the +RNA and –RNA wLOGSY spectra, relative to the corresponding signal in the one-dimensional -RNA reference spectrum. In one-dimensional experiments, line broadening (LB) was quantified as explained for CPMG spectra.

PRF RNA = assay: ligand-based 1H NMR (1D, CPMG, wLOGSY); assay type: binding, SARS-CoV-2
3_SL1+2 RNA = assay type: binding
5_SL2+3 RNA = assay: ligand-based 1H NMR (1D, CPMG, wLOGSY); assay type: binding, SARS-CoV-2
SARS-CoV-2 = assay type: cell-based; conditions: 48 h post-infection
ORF7b RNA = assay: ligand-based 1H NMR (1D, CPMG, wLOGSY); assay type: binding, SARS-CoV-2
SCoV2 USA-WA1/2020 = assay type: cell-based; conditions: 293T-ACE2, MOI 2, 8-h single cycle; added at +2 h relative to infection
[3] = system: subdomain IIa of the internal ribosome entry site (IRES) RNA of HCV; parameters: method as in earlier work; conditions: ref 6 (Table S1 list: Martín-Villamil et al. 2022); cited from earlier work
SARS-CoV-2 USA-WA1/2020 [4] = assay: microbe, parasite or virus in culture; assay type: cell-based; conditions: 293T-ACE2 cells, MOI 0.25, two days, read-out: SARS-CoV-2 EC50
in vitro = conditions: African green monkey, uninfected Vero E6 cells
293T-ACE2 cells = conditions: read-out: SARS-CoV-2 CC50, uninfected, MTT
HIV-1 = conditions: cited from earlier work
[5] = ref 1 (Table S1 list: Prado et al. 2016)
[6] = average of aliphatic protons, RNA:ligand 1:100 (clomiphene) or 1:50 (trim, qz2)
[7] = average of aromatic protons, RNA:ligand 1:100 (clomiphene) or 1:50 (trim, qz2)
[8] = clomiphene citrate peak A, RNA:ligand 1:100
[9] = clomiphene citrate peak B, RNA:ligand 1:100
[10] = clomiphene citrate peak C, RNA:ligand 1:100
[11] = clomiphene citrate peak D, RNA:ligand 1:100
[12] = Severe acute respiratory syndrome coronavirus 2, Vero C1008, 48 h
[13] = ref 2 (Table S1 list: Prado et al. 2018)
[14] = ref 4 (Table S1 list: Medina-Trillo et al. 2020)

Homochlorcyclizine [reference compound]
Previous target RNA binding [1, 5]: yes | CC50 (Vero E6 cells): > 20 µM | EC50 (SARS-CoV-2 USA-WA1/2020 [2]): 3.59 µM

CCN(CC)CCOc1ccc(C(=C(Cl)c2ccccc2)c2ccccc2)cc1 [Clomiphene citrate, reference compound]
CPMG variation (3_S2m RNA; [6]): 39.5% | LB (3_S2m RNA; [6]): 44.9% | CPMG variation (3_S2m RNA; [7]): 40.4% | LB (3_S2m RNA; [7]): 37.4% | CPMG variation (3_S2m RNA; [8]): 37.1% | LB (3_S2m RNA; [8]): 57.5% | CPMG variation (3_S2m RNA; [9]): 38.8% | LB (3_S2m RNA; [9]): 51.5% | CPMG variation (3_S2m RNA; [10]): 40.8% | LB (3_S2m RNA; [10]): 35.3% | CPMG variation (3_S2m RNA; [11]): 40.4% | LB (3_S2m RNA; [11]): 37.4% | CPMG variation (ATTL RNA; [6]): 38.5% | LB (ATTL RNA; [6]): 35.1% | LB (ATTL RNA; [7]): 15.9% | CPMG variation (ATTL RNA; [8]): 34.3% | LB (ATTL RNA; [8]): 25.5% | CPMG variation (ATTL RNA; [9]): 38.3% | LB (ATTL RNA; [9]): 67.0% | CPMG variation (ATTL RNA; [10]): 40.8% | LB (ATTL RNA; [10]): 23.9% | CPMG variation (ATTL RNA; [11]): 41.4% | LB (ATTL RNA; [11]): 15.9% | RNA binding preference (SCoV2 RNA elements): bound significantly to all of the RNA sequences examined | LB (PRF RNA; [6]): 68.7% | LB (PRF RNA; [7]): 81.7% | CPMG variation (PRF RNA; [8]): 96.5% | LB (PRF RNA; [8]): 73.2% | CPMG variation (PRF RNA; [9]): 93.9% | LB (PRF RNA; [9]): 82.5% | CPMG variation (PRF RNA; [10]): 77.1% | LB (PRF RNA; [10]): 59.6% | CPMG variation (PRF RNA; [11]): 99.0% | LB (PRF RNA; [11]): 81.7% | CPMG variation (3_SL1+2 RNA; [6]): 94.5% | LB (3_SL1+2 RNA; [6]): 70.7% | LB (3_SL1+2 RNA; [7]): 61.4% | CPMG variation (3_SL1+2 RNA; [8]): 99.3% | LB (3_SL1+2 RNA; [8]): 59.6% | CPMG variation (3_SL1+2 RNA; [9]): 97.0% | LB (3_SL1+2 RNA; [9]): 89.5% | CPMG variation (3_SL1+2 RNA; [10]): 91.5% | LB (3_SL1+2 RNA; [10]): 66.9% | CPMG variation (3_SL1+2 RNA; [11]): 99.1% | LB (3_SL1+2 RNA; [11]): 61.4% | Previous target RNA binding [1, 5]: yes | CPMG variation (5_SL2+3 RNA; [6]): 23.3% | LB (5_SL2+3 RNA; [6]): 0.62% | LB (5_SL2+3 RNA; [7]): -1.34% | CPMG variation (5_SL2+3 RNA; [8]): 36.0% | LB (5_SL2+3 RNA; [8]): 23.4% | CPMG variation (5_SL2+3 RNA; [9]): 26.7% | LB (5_SL2+3 RNA; [9]): 13.7% | CPMG variation (5_SL2+3 RNA; [10]): 14.9% | LB (5_SL2+3 RNA; [10]): -17.3% | CPMG variation (5_SL2+3 RNA; [11]): 29.0% | LB (5_SL2+3 RNA; [11]): -1.34% | viral titers in supernatants (TCID50) (SARS-CoV-2): below the limit of detection | LB (ORF7b RNA; [6]): 68.0% | LB (ORF7b RNA; [7]): 67.6% | CPMG variation (ORF7b RNA; [8]): 96.3% | LB (ORF7b RNA; [8]): 61.5% | CPMG variation (ORF7b RNA; [9]): 96.5% | LB (ORF7b RNA; [9]): 67.2% | CPMG variation (ORF7b RNA; [10]): 92.9% | LB (ORF7b RNA; [10]): 71.7% | CPMG variation (ORF7b RNA; [11]): 97.5% | LB (ORF7b RNA; [11]): 67.6% | nucleocapsid protein expression (SCoV2 USA-WA1/2020): strongly inhibited

CC(CNc1nc2c(cnn2-c2ccccc2)c(=O)[nH]1)Cn1ccnc1 (stereo not shown) [gn1]
EC50 (SARS-CoV-2 USA-WA1/2020 [2]; [12]): > 20 µM | Previous target RNA binding [3]: yes

CCN(CC)CCCC(C)Nc1ccc2ccccc2n1 (stereo not shown) [qn1]
EC50 (SARS-CoV-2 USA-WA1/2020 [4]; Severe acute respiratory syndrome coronavirus 2, 48 h): 0.32 µM | CC50 at 2 days (in vitro): > 20 µM | EC50 (SARS-CoV-2 USA-WA1/2020 [2]; [12]): 9.4 µM | Previous target RNA binding [3]: yes

N=c1c(S(=O)(=O)c2ccc(Cl)cc2)cc2c(=O)n3ccccc3nc2n1C1CCCCC1 [2b]
Previous target RNA binding [1, 13]: yes | Previous target RNA binding [1, 14]: yes | EC50 (SARS-CoV-2 USA-WA1/2020 [4]): > 10 µM | CC50 (293T-ACE2 cells): > 20 µM | CC50 (Vero E6 cells): > 20 µM | Previous target virus activity (HIV-1; [13]): yes | Previous target virus activity (HIV-1; [14]): no
